Results published in patent US20250289826A1, “PLPRO PROTEIN INHIBITOR, AND PREPARATION METHOD AND APPLICATION THEREOF” (priority 2022, published 2025).
Where “and” joins values, the source holds several entries; their conditions need not be identical. Identical values can stand only once.

Columns and labels:
[1] = system: SARS-CoV-2 live virus (Delta strain); assay: microbe, parasite or virus in culture; type: cell-based
PLpro = PLpro (Severe acute respiratory syndrome coronavirus 2 (2019-nCoV) (SARS-CoV-2), UniProt P0DTD1); assay: Assay for PLpro inhibitory activity (Ub-AMC fluorescence; single point inhibition test and IC50 determination); type: biochemical; settings: for IC50: fluorescence measured after 15 min of reaction; for inhibition at 1 µM: read-out: inhibition of PLpro (1 μM), 1 μM test compound, 100 nM PLpro, 10 μM Ub-AMC, 37° C. 30 min
[2] = Severe acute respiratory syndrome coronavirus 2, Calu-3, 48 h

Structure (SMILES)	inhibition at 1 µM (PLpro) [%]	also measured
Cc1ccc(N2CC(N(C)C)C2)cc1C(=O)NC1(c2ccc(F)c3ncccc23)CC1 [Example C26]	95.9	Inhibition rate/% ([1]; 3.125 nM, Calu-3 cells, Delta strain, 48 h, three replicate values): 2.076% and 45.3104% and −0.0016%; Inhibition rate/% ([1]; 6.25 nM, Calu-3 cells, Delta strain, 48 h, three replicate values): 37.9405% and 58.6715% and 67.2927%; Inhibition rate/% ([1]; 12.5 nM, Calu-3 cells, Delta strain, 48 h, three replicate values): −4.0599% and 50.6792% and 17.0436%; Inhibition rate/% ([1]; 25 nM, Calu-3 cells, Delta strain, 48 h, three replicate values): −64.656% and 17.2863% and 31.5856%; Inhibition rate/% ([1]; 50 nM, Calu-3 cells, Delta strain, 48 h, three replicate values): 92.4972% and 64.3219% and 67.0889%; Inhibition rate/% ([1]; 100 nM, Calu-3 cells, Delta strain, 48 h, three replicate values): 93.9064% and 96.0939%; Inhibition rate/% ([1]; 200 nM, Calu-3 cells, Delta strain, 48 h, three replicate values): 99.5887% and 99.6848%; Inhibition rate/% ([1]; 400 nM, Calu-3 cells, Delta strain, 48 h, three replicate values): 99.9327% and 99.8544%; EC50 [1, 2]: 36.3 ± 4.11 nM; EC90 [1, 2]: 73.1 ± 7.23 nM; inhibition at 0.1 µM ([1]; Severe acute respiratory syndrome coronavirus 2, Calu-3, 48 h, 100 nM, Calu-3 cells, Delta strain, 48 h, three replicate values, read-out: Inhibition rate/%): 92.2%; inhibition at 0.2 µM ([1]; Severe acute respiratory syndrome coronavirus 2, Calu-3, 48 h, 200 nM, Calu-3 cells, Delta strain, 48 h, three replicate values, read-out: Inhibition rate/%): 99.9%; inhibition at 0.4 µM ([1]; Severe acute respiratory syndrome coronavirus 2, Calu-3, 48 h, 400 nM, Calu-3 cells, Delta strain, 48 h, three replicate values, read-out: Inhibition rate/%): 100%; inhibition of SARS-CoV-2 live virus infecting human cells (in words) ([1]; in vitro experiment): can effectively inhibit SARS-CoV-2 live virus from infecting human cells; IC50 (PLpro): 38.3 ± 5.27 nM
Cc1ccc(N2CC(N(C)C)C2)cc1C(=O)NC1(c2ccnc3c(Cl)cccc23)CC1 [Example C29]	92.9	IC50 (PLpro): 44.9 nM
COc1cccc2c(C3(NC(=O)c4cc(N5CC(N(C)C)C5)ccc4C)CC3)ccnc12 [Example C30]	91.5	IC50 (PLpro): 67.4 nM
Cc1ccc(N2CCCC(N(C)C)C2)cc1C(=O)NC1(c2ccc(F)c3ccccc23)CC1 (stereo not drawn) [Example C31]	49.2	
Cc1ccc(N2CCCC(N(C)C)C2)cc1C(=O)NC1(c2ccnc3ccccc23)CC1 (stereo not drawn) [Example C32]	43.9	
Cc1ccc(N2CCS(=O)(=O)CC2)cc1C(=O)NC1(c2ccnc3ccccc23)CC1 [Example C33]	41	
Cc1ccc(NC2CN3CCC2CC3)cc1C(=O)NC1(c2ccnc3ccccc23)CC1 (stereo not drawn) [Example C34]	31.1	
Cc1ccc(N2CCS(=O)(=O)CC2)cc1C(=O)NC1(c2ccc(F)c3ccccc23)CC1 [Example C35]	2.6	
COC1(C)CN(c2ccc(C)c(C(=O)NC3(c4cccc5ncccc45)CC3)c2)C1 [Example C36]	3.5	
Cc1ccc(N2CC(C(=O)O)C2)cc1C(=O)NC1(c2cccc3ncccc23)CC1 [Example C37]	12.6	
COC1(C)CN(c2ccc(C)c(C(=O)NC3(c4ccc(F)c5ncccc45)CC3)c2)C1 [Example C38]	11.7	
Cc1ccc(NC2CN3CCC2CC3)cc1C(=O)NC1(c2ccc(F)c3ncccc23)CC1 (stereo not drawn) [Example C39]	40.8	
Cc1ccc(N2CCCC(N(C)C)C2)cc1C(=O)NC1(c2ccc(F)c3ncccc23)CC1 (stereo not drawn) [Example C40]	55.2	
Cc1ccc(N2CCS(=O)(=O)CC2)cc1C(=O)NC1(c2ccc(F)c3ncccc23)CC1 [Example C41]	32.8	
Cc1ccc(N2CCN(C(C)C)CC2)cc1C(=O)NC1(c2ccnc3ccccc23)CC1 [Example C42]	85.2	
Cc1ccc(N2CCN(C3CC3)CC2)cc1C(=O)NC1(c2ccnc3ccccc23)CC1 [Example C43]	71.9	
Cc1ccc(N2CCN(C(C)C)CC2)cc1C(=O)NC1(c2ccc(F)c3ncccc23)CC1 [Example C44]	84.9	
Cc1ccc(N2CCN(C3CC3)CC2)cc1C(=O)NC1(c2ccc(F)c3ncccc23)CC1 [Example C45]	81.4	
Cc1ccc(N2CCN(C3CC3)CC2)cc1C(=O)NC1(c2cccc3ncccc23)CC1 [Example C46]	77.6	
Cc1ccc(N2CC(N(C)C)C2)cc1C(=O)NC1(c2ccc3ccccc3c2)CC1 [Example C47]	58	

Structure (SMILES)	inhibition at 1 µM (PLpro) [%]	also measured
Cc1ccc(N2CCN(C(C)C)CC2)cc1C(=O)NC1(c2ccc(F)c3ccccc23)CC1 [Example C48]	84.4	
Cc1ccc(N2CCN(C3CC3)CC2)cc1C(=O)NC1(c2ccc(F)c3ccccc23)CC1 [Example C49]	58.4	
Cc1ccc(NC2CCNC2)cc1C(=O)NC1(c2ccc(F)c3ccccc23)CC1 (stereo not drawn) [Example C50]	27.8	
Cc1ccc(NC2CCN(C)CC2)cc1C(=O)NC1(c2ccc(F)c3ncccc23)CC1 [Example C51]	38.4	
Cc1ccc(NC2CCNC2)cc1C(=O)NC1(c2ccc(F)c3ncccc23)CC1 (stereo not drawn) [Example C53]	44.9	
Cc1ccc(NC2CCNCC2)cc1C(=O)NC1(c2ccc(F)c3ncccc23)CC1 [Example C56]	24.5	
Cc1ccc(N2CC(N(C)C)C2)cc1C(=O)NC1(c2cccc3ccsc23)CC1 [Example C57]	92	
Cc1ccc(N2CC(N(C)C)C2)cc1C(=O)NC1(c2ccc(OC(F)(F)F)c3ncccc23)CC1 [Example C58]	88	IC50 (PLpro): 220 nM
Cc1ccc(N2CC([N+](C)(C)[O-])C2)cc1C(=O)NC1(c2ccc(F)c3ncccc23)CC1 [Example C59]	0	
Cc1ccc(N2CC(N(C)C)C2)cc1C(=O)NC1(c2ccc(F)c3[nH]c(=O)ccc23)CC1 [Example C60]	82	
Cc1ccc(N2CC(N(C)C)C2)cc1C(=O)NC1(c2cc(C(F)(F)F)nc3c(C(F)(F)F)cccc23)CC1 [Example C61]	85	
Cc1ccc(N2CC(N(C)C)C2)cc1C(=O)NC1(c2ccc(F)c3nc(C(F)F)ccc23)CC1 [Example C62]	92	
Cc1ccc(N2CCC(O)CC2)cc1C(=O)NC1(c2ccc(F)c3ncccc23)CC1 [Example C63]	30	
COc1ccc2c(C3(NC(=O)c4cc(N5CC(N(C)C)C5)ccc4C)CC3)ccc(F)c2n1 [Example C64]	78	IC50 (PLpro): 50.6 nM
Cc1ccc(N2CC(C(C)(C)O)C2)cc1C(=O)NC1(c2ccc(F)c3ncccc23)CC1 [Example C65]	22	
Cc1ccc(N2CC3C(N)C3C2)cc1C(=O)NC1(c2ccc(F)c3ncccc23)CC1 (stereo not drawn) [Example C66]	68	
Cc1ccc(N2CC(N(C)C)C2)cc1C(=O)NC1(c2ccnc3c(F)cccc23)CC1 [Example C67]	97.7	IC50 (PLpro): 36.6 nM
Cc1ccc(N2CC(N(C)C)C2)cc1C(=O)NC1(c2ccc(OC(F)F)c3ccccc23)CC1 [Example C68]	98.5	IC50 (PLpro): 182 nM
Cc1ccc(N2CC(N(C)C)C2)cc1C(=O)NC1(c2ccc(OC(F)F)c3ncccc23)CC1 [Example C69]	98.8	IC50 (PLpro): 29.3 nM
Cc1ccc(N2CC(N(C)C)C2)cc1C(=O)NC1(c2ccc(C#N)c3ccccc23)CC1 [Example C70]	99.2	IC50 (PLpro): 40.6 nM

Structure (SMILES)	inhibition at 1 µM (PLpro) [%]	also measured
Cc1ccc(N2CC(N(C)C)C2)cc1C(=O)NC1(c2cccc(Oc3ccccc3)c2)CC1 [Example C71]	25	
Cc1ccc(N2CC(N(C)C)C2)cc1C(=O)NC1(c2ccc3c(c2)c2ccccc2n3C)CC1 [Example C72]	91	
Cc1ccc(N2CC(N(C)C)C2)cc1C(=O)NC1(c2cnc(O)c3ccccc23)CC1 [Example C73]	89.3	IC50 (PLpro): 172 ± 18.1 nM
COc1ncc(C2(NC(=O)c3cc(N4CC(N(C)C)C4)ccc3C)CC2)c2ccccc12 [Example C74]	88.6	IC50 (PLpro): 217 ± 22.2 nM
Cc1ccc(N2CC(N(C)C)C2)cc1C(=O)NC1(c2ccc(C)c3ncccc23)CC1 [Example C75]	99.4	IC50 (PLpro): 4.71 ± 1.38 nM
COc1ccc(C2(NC(=O)c3cc(N4CC(N(C)C)C4)ccc3C)CC2)c2cccnc12 [Example C76]	99.6	IC50 (PLpro): 15.9 ± 3.25 nM
Cc1ccc(N2CC(N(C)C)C2)cc1C(=O)NC1(c2cccc3c2OCCO3)CC1 [Example C77]	63	
Cc1ccc(N2CC(N(C)C)C2)cc1C(=O)NC1(c2cccc3c2OCO3)CC1 [Example C78]	25.4	
Cc1ccc(Br)cc1/C=N/C1(c2ccc(F)c3ncccc23)CC1 [Example C79]	16.5	
Cc1ccc(N2CC(N(C)C)C2)cc1/C=N/C1(c2ccc(F)c3ncccc23)CC1 [Example C80]	11.9	
Cc1ccc(N2CC(CN)C2)cc1C(=O)NC1(c2ccc(F)c3ncccc23)CC1 [Example C81]	37.1	
Cc1ccc(N2CC(C(C)(C)N)C2)cc1C(=O)NC1(c2ccc(F)c3ncccc23)CC1 [Example C82]	8.2	
Cc1ccc(N2CC(CN(C)C)C2)cc1C(=O)NC1(c2ccc(F)c3ncccc23)CC1 [Example C83]	24.2	
Cc1ccc(N2CC(N(C)C)C2)cc1CNC1(c2ccc(F)c3ncccc23)CC1 [Example C85]	45.7	
Cc1ccc(N)cc1CNC1(c2ccc(F)c3ncccc23)CC1 [Example C86]	33.5	
Cc1ccc(N)cc1C(=O)NC1(c2ccc(F)c3ncccc23)CC1 [Example C87]	23.1	
Cc1ccc(N2CC(N(C)C)C2)cc1C(=O)NC1(c2ccc(N(C)C)c3ccccc23)CC1 [Example C88]	96.2	IC50 (PLpro): 175 nM
Cc1ccc2c(C3(NC(=O)c4cc(N5CC(N(C)C)C5)ccc4C)CC3)ccc(F)c2n1 [Example C89]	82	IC50 (PLpro): 119 nM
[2H]C1([2H])C(N(C)C)C([2H])([2H])N1c1ccc(C)c(C(=O)NC2(c3ccc(F)c4ncccc34)CC2)c1 [Example C90]	85	IC50 (PLpro): 69.8 nM
Cc1ccc(N2CC(N(C)C)C2)cc1C(=O)NC1(c2cccc3c2ccn3C)CC1 [Example C91]	71	
